Series [1] relates to MMP-1, 3, and 13. Description: ELISA of MMP production by RA synovial cells. Conditions: overnight; 50 ng/ml interleukin 1b, 10 ng/ml TNF-α, 50 ng/ml TRAIL, 50 ng/ml TRA-8. The series is classed as cell-based, human. The protocol: Thus, it is possible that TRAIL, like TNF-α, may serve as a pro-inflammatory cytokine. […] The levels of the MMP-1 and MMP-3 in the culture supernatants are determined by the ELISA kits.

In series [2] the test system is CLL B cells. Description: Cytotoxicity to CLL B cells in vitro. The series is classed as cell-based, human. Conditions: compared to normal primary B cells.
Series [3] deals with normal human hepatocytes. Description: Viability of normal human hepatocytes (ATPLite). Format: cell-based. An excerpt: For 24-hour cell viability assays, fresh normal human hepatocytes in 96-well plates were purchased from In Vitro Technology (Baltimore, Md.). […] For 6-hour viability assays, normal hepatocytes or hepatocellular cancer cells are isolated from fresh surgical specimens collected from UAB Tissue Procurement Center. All reagents for isolation of human hepatocytes including hepatocytes perfusion buffer, digest medium, washing medium, and attachment medium were purchased from Gibco. The tissue slides are digested in the Hepatocyte Digest Medium at 37° C. with shaking (50 rpm) for one hour. The isolated hepatocytes are harvested by low speed centrifugation (50 g, 3 min), and washed with the Hepatocyte Washing Medium six times. Single cell suspension of hepatocytes are cultured in the Attachment Medium containing 10% FCS in 96-well Matrigel plates (BD) for six hours. Non-attached hepatocytes are removed by twice washing with pre-warmed attachment medium.

Series [4] relates to RA synovial cells. Description: Cell viability of primary cultured RA synovial cells. The series is classed as cell-based, human. Conditions: high concentrations (>50 ng/ml). The text has this: (§1) Cell viability is the percentage of the cpm of treated cells versus the cpm of untreated cells.
(§2) The expression of DR5 on a panel of eight primary cultured synovial cells from patients with RA is compared with that on eight primary cultured synovial cells from patients with osteoarthritis (hereinafter referred to as “OA”). The eight human primary RA synovial cell cultures RA-1014, RA-1016, RA-1021, RA-512, RA-707, RA-811, RA-716, and RA-929 are kindly provided by Dr. M. Ohtsuki (Sankyo Co. Ltd., Tokyo, Japan) and cultured in DMEM supplemented with 10% FCS, penicillin, streptomycin, and glutamine. The […] OA synovial cell primary cell cultures are isolated from the synovial tissues of OA patients by a standard collagenase method and cultured under the same conditions. The passage number of all primary cells is under 10. The expression of DR5 is determined by FACs analysis as described in Example 5.

In series [5] the target is T1, DR4 (Homo sapiens, UniProt O00220).
T1 construct: The soluble recombinant human DR4, DcR1, DcR2, TNFR1, R4, and Fas molecules used are human IgG1 fusion proteins; human IgG1 Fc
Description: ELISA binding to immobilized DR4-Ig fusion protein. The protocol:
ELISA plates are coated with 2 μg/ml of DR4-Ig or DR5-Ig fusion protein overnight. […] The reactions are developed by TMB substrate buffer and measured by the Benchmark Microplate Reader (BioRad). The Kd values are estimated by the one-site binding model of non-linear regression using GraphPad Prism® software (GraphPad Software, San Diego, Calif.).

The subject of series [6] is H-9. Briefly: Apoptosis by ATPLite after overnight incubation. The series is classed as cell-based, human. The protocol:
(§3) Cell viability is determined using (1) the ATPLite® kit according to the manufacturer's instructions (Packard Instruments, Meriden, Conn.); (2) the MTT Cell proliferation/viability kit (Sigma); or (3) PI staining of dead cells and analyzed by flow cytometry. At end of culture, cells are stained with 10 μg/ml PI and PI negative cells are gated as viable cells. For analysis of condensed nuclei of hepatocytes, cells are stained with 10 ng/ml Hoechst 33352 (Molecular Probes) and analyzed by flow cytometry.

In series [7] the test system is Hs683. Briefly: Apoptosis by ATPLite after overnight incubation. The series is classed as cell-based, human. The protocol: as §3
Series [8] relates to Daudi. Description: Apoptosis by ATPLite after overnight incubation. Format: cell-based, human. The protocol: as §3
Series [9] deals with Molt-4. Description: Apoptosis by ATPLite after overnight incubation. The series is classed as cell-based, human. The protocol:
as §3

In series [10] the test system is U87. Description: Apoptosis by ATPLite after overnight incubation. The series is classed as cell-based, human. The protocol: as §3
Series [11] deals with EB-3. Briefly: Apoptosis by ATPLite after overnight incubation. Format: cell-based, human. The protocol:
as §3

Series [12] concerns U251-MG. Description: Apoptosis by ATPLite after overnight incubation. The series is classed as cell-based, human. The protocol: as §3
Series [13] relates to Raji. Briefly: Apoptosis by ATPLite after overnight incubation. The series is classed as cell-based, human. The protocol:
as §3

Series [14] concerns SKW6.4. Description: Apoptosis by ATPLite after overnight incubation. The series is classed as cell-based, human. The protocol: as §3
In series [15] the test system is primary B cells. Description: Apoptosis by ATPLite after overnight incubation. Format: cell-based, human. The protocol: as §3
The subject of series [16] is CEM-6. Description: Apoptosis by ATPLite after overnight incubation. Format: cell-based, human. The protocol: as §3
The test system of series [17] is U937. Description: Apoptosis by ATPLite after overnight incubation. Format: cell-based, human. The protocol:
as §3

Series [18] has as its system liver. Description: Induction of hepatitis in vivo by tetracycline-inducible adenoviral vectors. On the set-up: species or system B6 mice. Conditions: Ad/TRAIL inoculated mice; 10 μg soluble human TRAIL. The protocol: 8-10 week-old female B6 mice are intravenously injected with 10^9 pfu of Ad/hTRAIL with the equal number of Ad/Tet-on. Mice are fed with different concentrations of tetracycline in their drinking water immediately after inoculation of adenoviral vectors. Liver injury is determined by serum levels of AST using an AST diagnostic kit (Sigma). Expression of TRAIL is determined by Northern blot analysis.

The test system of series [19] is Jurkat cells. Briefly: Jurkat cell viability (ATPLite, MTT, PI exclusion). Format: cell-based, human. Conditions: overnight, TRAIL plus crosslinker. The protocol: as §3
Series [20] concerns OA synovial cells. Briefly: Cell viability of primary cultured OA synovial cells. Format: cell-based, human. As to conditions: OA72M.
Excerpt: as §1, §2

Series [21] concerns breast cancer lines. Description: Combined cytotoxicity of TRA-8 with adriamycin. The series is classed as cell-based, human.
The subject of series [22] is Jurkat cells. Briefly: Apoptosis-inducing activity of humanized antibody on Jurkat cells (XTT). As to conditions: 12 hours; serial 2-fold dilution from 100 ng/ml. Format: cell-based, human. The protocol: Jurkat cells cultured in RPMI1640 medium with 10% FCS (Gibco BRL) at 37° C. for 3 days in the presence of 5% CO2 are dispensed into each well of a 96-well microplate (Sumitomo Bakelite) at 50 μl per well. […] Each of the solutions of the expression products thus adjusted to 100 ng/ml is used to produce serial dilutions by repeating serial 2-fold dilution with RPMI1640 containing 10% FCS. […] After reacting at 37° C. for 12 hours, 50 μl of 25 μM PMS (phenazine methosulfate; Sigma Chemical Co.) containing 1 mg/ml XTT (2,3-bis [2-methoxy-4-nitro-5-sulfophenyl]-2H-tetrazolium-5-carboxyaniride inner salt; Sigma Chemical Co.) is added (final concentrations of 250 μg/ml for XTT and 5 μM for PMS). After incubating for 3 hours, the absorbance at 450 nm of each well is measured to calculate the cell viability by using the reduction ability of mitochondria as the index.
The viability of the cells in each well is calculated according to the following formula: Viability(%)=100×(a−b)/(c−b) wherein “a” is the measurement of a test well, “b” is the measurement of a well with no cells, and “c” is the measurement of a well with no antibody added.
Jurkat cells cultured in RPMI1640 medium with 10% FCS (Gibco BRL) at 37° C. for 3 days in the presence of 5% CO2 are dispensed into each well of a 96-well microplate (Sumitomo Bakelite) at 50 μl per well. […]

T1 sequence (O00220 24-239 limits assumed): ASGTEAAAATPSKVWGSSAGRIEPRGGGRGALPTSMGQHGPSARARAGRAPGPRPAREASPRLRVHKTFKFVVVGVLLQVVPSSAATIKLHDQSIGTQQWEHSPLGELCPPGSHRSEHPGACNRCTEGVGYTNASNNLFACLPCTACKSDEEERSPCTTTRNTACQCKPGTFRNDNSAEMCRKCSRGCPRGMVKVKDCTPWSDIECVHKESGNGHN

Consider TNF-α, for which, in series [1], the “production/release of MMPs” value is given as “increased”.
With `Cn1cc(C2=C(c3cn(CCCN)c4ccccc34)C(=O)NC2=O)c2ccccc21` [BisVIII, Bisindolylmaleimide VIII], the “susceptibility of CLL B cells” value in series [2] was “sensitive”.
With “TRAIL: Soluble recombinant human TRAIL (aa residues 95 to 281) fused to a FLAG-tag, Alexis; used with anti-FLAG crosslinker”, the hepatocytes killed entry in series [3] (6-hour culture period, 500 ng/ml TRAIL) is “Over 20%”; in series [3] (end of 24-hour culture, 1 μg/ml, TRAIL plus crosslinker), “more than 80%”. In addition, the cell death in series [4] (RA929), in series [4] (RA-716), in series [4] (RA-811) and in series [4] (RA-1014) was about 100% each time. In series [5], the “binding activity to DR4” value is recorded as “bound to DR4”. The susceptibility to apoptosis entry is “resistant” in [6]; “resistant” in series [7]; “much less susceptible” in [8]; “partially susceptible” in series [9]; “exhibited sensitivity” in series [10]; “very susceptible” in series [11]. For the same molecule, the susceptibility to apoptosis result in [12] is recorded as “resistant”; in series [13], “very susceptible”; in series [14], “very susceptible”; in series [15] it was “did not undergo apoptosis”; in series [16], “highly susceptible”; in series [17] it was “partially susceptible”. The susceptibility to apoptosis result in [19] was “highly susceptible”; in series [20], “completely resistant”. For the same molecule, the “liver injury after intravenous injection” value in series [18] is recorded as “did not exhibit increased liver injury”. In addition, in [1], the “production/release of MMPs” value is “not associated with increased release”.
IL-1b: proinflammatory cytokine: the “production/release of MMPs” value in [1] was “increased”.
For the molecule `COc1cccc2c1C(=O)c1c(O)c3c(c(O)c1C2=O)C[C@@](O)(C(=O)CO)C[C@@H]3O[C@H]1C[C@H](N)[C@H](O)[C@H](C)O1` [adriamycin], the “effect on TRA-8-induced apoptosis” value in series [21] (high doses of adriamycin) was “additive effect”; in series [21] (low doses of adriamycin, some TRA-8 resistant lines), “synergistically enhance”.

B1: humanized TRA-8: humanized TRA-8, cotransfection of pHB14-1 and pSR/M2-1: H2 type heavy chain (SEQ ID No. 31), LM2 light chain (SEQ ID No. 46) (antibody)
VH: EVMLVESGGGLVQPGGSLRLSCAASGFTFSSYVMSWVRQAPGKGLEWVATISSGGSYTYYPDSVKGRFTISRDNAKNTLYLQMNSLRAEDTAVYYCARRGDSMITTDYWGQGTLVTVSS
light: DIVMTQSPSSLSASVGDRVTITCKASQDVGTAVAWYQQKPGKAPKLLIYWASTRHTGVPSRFSGSGSGTDFTLTISSLQPEDFATYYCQQYSSYRTFGQGTKVEIKRTVAAPSVFIFPPSDEQLKSGTASVVCLLNNFYPREAKVQWKVDNALQSGNSQESVTEQDSKDSTYSLSSTLTLSKADYEKHKVYACEVTHQGLSSPVTKSFNRGEC
In the case of B1, the induction of apoptosis entry in [22] is given as “induce apoptosis”.
